Our source for the IC50 values is patent publication US9649309B2 (priority 2014, dated 2017).

The term IC50 denotes the concentration at which inhibition is half-maximal.

One assay deals with Axl (Homo sapiens (Human), UniProt P30530). As to conditions: read-out: IC50 Axl.
For another assay, the target named is Tyro3 (Homo sapiens (Human), UniProt Q06418). As to conditions: read-out: IC50 Tyro3.
Sequence of Tyro3 (Q06418 41-890 limits assumed): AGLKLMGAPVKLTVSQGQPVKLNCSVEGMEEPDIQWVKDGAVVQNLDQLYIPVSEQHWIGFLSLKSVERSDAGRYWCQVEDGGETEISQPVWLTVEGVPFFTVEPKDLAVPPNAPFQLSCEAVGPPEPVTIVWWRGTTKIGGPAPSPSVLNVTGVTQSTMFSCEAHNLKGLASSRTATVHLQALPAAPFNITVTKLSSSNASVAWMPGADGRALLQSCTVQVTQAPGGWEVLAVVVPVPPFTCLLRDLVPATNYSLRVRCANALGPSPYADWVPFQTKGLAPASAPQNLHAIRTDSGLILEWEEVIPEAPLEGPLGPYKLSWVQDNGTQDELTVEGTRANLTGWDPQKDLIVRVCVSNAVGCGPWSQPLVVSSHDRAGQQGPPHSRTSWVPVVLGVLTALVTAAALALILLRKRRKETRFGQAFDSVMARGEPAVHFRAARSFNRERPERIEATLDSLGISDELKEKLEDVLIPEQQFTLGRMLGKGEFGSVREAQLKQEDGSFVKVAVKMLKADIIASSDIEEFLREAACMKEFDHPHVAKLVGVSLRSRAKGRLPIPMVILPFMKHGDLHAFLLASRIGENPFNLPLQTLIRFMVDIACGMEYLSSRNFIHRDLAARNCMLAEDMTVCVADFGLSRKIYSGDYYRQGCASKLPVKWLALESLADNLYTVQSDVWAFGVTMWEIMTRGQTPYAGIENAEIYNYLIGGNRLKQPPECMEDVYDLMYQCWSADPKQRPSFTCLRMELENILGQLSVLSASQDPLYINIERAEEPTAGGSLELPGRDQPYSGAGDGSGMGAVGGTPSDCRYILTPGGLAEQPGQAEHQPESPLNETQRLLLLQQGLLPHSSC

Sequence of Axl (P30530 26-894 limits assumed): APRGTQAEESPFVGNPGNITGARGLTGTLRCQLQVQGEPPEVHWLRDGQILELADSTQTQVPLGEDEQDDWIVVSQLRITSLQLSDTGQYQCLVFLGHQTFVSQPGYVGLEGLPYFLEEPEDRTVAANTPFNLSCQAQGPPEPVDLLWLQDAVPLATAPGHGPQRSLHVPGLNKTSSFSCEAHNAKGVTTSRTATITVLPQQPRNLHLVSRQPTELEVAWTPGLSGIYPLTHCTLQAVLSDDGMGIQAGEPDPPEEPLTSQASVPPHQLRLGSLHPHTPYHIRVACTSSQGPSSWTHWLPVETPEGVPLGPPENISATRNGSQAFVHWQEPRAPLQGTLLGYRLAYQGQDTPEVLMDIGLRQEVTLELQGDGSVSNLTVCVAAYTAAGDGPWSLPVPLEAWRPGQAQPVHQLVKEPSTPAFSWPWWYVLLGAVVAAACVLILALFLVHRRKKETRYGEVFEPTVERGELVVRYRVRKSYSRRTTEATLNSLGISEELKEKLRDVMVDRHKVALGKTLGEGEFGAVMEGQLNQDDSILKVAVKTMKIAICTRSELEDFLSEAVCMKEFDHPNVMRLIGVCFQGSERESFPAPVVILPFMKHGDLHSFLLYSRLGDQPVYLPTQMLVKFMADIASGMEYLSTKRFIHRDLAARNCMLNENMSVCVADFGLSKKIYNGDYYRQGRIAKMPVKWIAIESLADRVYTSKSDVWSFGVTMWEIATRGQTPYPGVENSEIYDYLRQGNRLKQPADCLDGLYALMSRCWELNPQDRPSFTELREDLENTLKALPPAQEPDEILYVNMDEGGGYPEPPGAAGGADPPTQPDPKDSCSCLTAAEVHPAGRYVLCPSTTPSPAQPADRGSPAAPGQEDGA

`OCCCCNc1ncc(-c2nccs2)c(N[C@H]2CC[C@H](O)CC2)n1` [UNC3146A]: the IC50 turned out to be 984 nM at Axl and 1010 nM on Tyro3.

`C=CCN1CCC(CNC(=O)c2cnc(NCCCC)nc2N[C@H]2CC[C@H](O)CC2)CC1` [UNC4303A]: the results for the IC50 at Axl and on Tyro3 were 777 nM and 486 nM, respectively.

With `CCCCNc1ncc(-c2cc(Nc3cccc([N+](=O)[O-])c3)ncn2)c(N[C@H]2CC[C@H](O)CC2)n1` [UNC4322A], the results for the IC50 on Axl and on Tyro3 were 30000 nM and 889 nM, respectively.

With `CCCCNc1ncc(C(=O)NCc2ccc(-c3ccc4ccccc4c3)nc2)c(N[C@H]2CC[C@H](O)CC2)n1` [UNC4235A], the IC50 on Axl came to 1800 nM; at Tyro3 it was 1270 nM.

In the case of `CCCCNc1ncc(-c2ccc(CN3CC(C)NC(C)C3)cn2)c(NC2CCC(O)CC2)n1` (centres unmarked) [UNC4105A], at Tyro3, the half-maximal inhibitory concentration (IC50) was determined as 27 nM.

Turning to `CCCCNc1ncc(C(=O)NCC2CCCCC2)c(N[C@H]2CC[C@H](O)CC2)n1` [UNC2603A], the IC50 at Axl amounted to 1120 nM; on Tyro3, 506 nM.

In the case of `CCCCNc1ncc(-c2nc(C(N)=O)cs2)c(N[C@H]2CC[C@H](O)CC2)n1` [UNC3136A], the IC50 at Axl was 237 nM; on Tyro3, 76 nM.

`CCCCNc1ncc(-c2ccc(N3CCN(C(=O)OC(C)(C)C)CC3)nn2)c(N[C@H]2CC[C@H](O)CC2)n1` [UNC3071A]: the half-maximal inhibitory concentration (IC50) was determined as 275 nM on Axl and 298 nM on Tyro3.

As to `CCCCNc1ncc(C(=O)NCc2cncnc2)c(N[C@H]2CC[C@H](O)CC2)n1` [UNC4307A], the IC50 on Axl amounted to 471 nM; at Tyro3 it was 217 nM.

Take `CCCCNc1ncc(-c2ccc(NC(=O)C3CCC3)cn2)c(NC2CCC(O)CC2)n1` (centres unmarked) [UNC2790A]: the IC50 on Axl worked out at 835 nM; at Tyro3, 338 nM.

For the compound `CCCCNc1ncc(-c2cn(C)cn2)c(N[C@H]2CC[C@H](O)CC2)n1` [UNC3116A], the IC50 at Axl was found to be 10000 nM; at Tyro3, 3940 nM.

For `CCCCNc1ncc(C(=O)NC2CCN(CC3CCCC3)CC2)c(N[C@H]2CC[C@H](O)CC2)n1` [UNC2878A], the IC50 was 191 nM at Axl and 166 nM at Tyro3.

Regarding `CCCCNc1ncc(-c2ccc(CC3CCN(C(C)C)CC3)cn2)c(N[C@H]2CC[C@H](O)CC2)n1` [UNC4339A, trans-4-((2-(butylamino)-5-(5-((1-isopropylpiperidin-4-yl)methyl)pyridin-2-yl)pyrimidin-4-yl)amino)cyclohexan-1-ol], the values for the 50% inhibitory concentration (IC50) at Axl and on Tyro3 were 39 nM and 22 nM, respectively.

As for `CCCCNc1ncc(-c2ccc(CNC3CC4CCC(C3)N4C)cn2)c(N[C@H]2CC[C@H](O)CC2)n1` (some centres unmarked) [UNC4163A], the IC50 turned out to be 20 nM on Axl and 8.7 nM at Tyro3.

On to `CCCCNc1ncc(-c2ccc(C3(N4CCOCC4)CCCC3)cn2)c(NC2CCC(O)CC2)n1` (centres unmarked) [UNC3667A], for which the IC50 at Axl was 47 nM; on Tyro3 it was 7.4 nM.

Consider `CCCCNc1ncc(-c2ccccn2)c(Nc2ccc(O)cc2)n1` [UNC2998A], for which the IC50 at Axl is 30000 nM; on Tyro3, 363 nM.

For the compound `CCCCNc1ncc(-c2ccc(CN3C[C@H](C)NC[C@H]3C)cn2)c(NC2CCC(O)CC2)n1` (some centres unmarked) [UNC4109A], the IC50 at Axl is 119 nM; at Tyro3 it was 28 nM.

As to `CCCCNc1ncc(C(=O)NCc2ccc(C3=CCCCC3)nc2)c(N[C@H]2CC[C@H](O)CC2)n1` [UNC4256A], the IC50 at Axl stood at 743 nM; at Tyro3 it was 340 nM.

Take `CCCCNc1ncc(-c2ccc(N3CCCC3)nn2)c(N[C@H]2CC[C@H](O)CC2)n1` [UNC3044A]: the IC50 came out at 912 nM on Axl and 377 nM at Tyro3.

Consider `CCCCNc1ncc(C(=O)NCc2ccc(-n3cnc(-c4ccccc4)c3)cc2)c(N[C@H]2CC[C@H](O)CC2)n1` [UNC2969A], for which the IC50 is 667 nM at Axl and 1060 nM at Tyro3.

As to `CCCCNc1ncc(-c2cnc(SC)cn2)c(N[C@H]2CC[C@H](O)CC2)n1` [UNC3074A], the figures for the IC50 on Axl and on Tyro3 were 754 nM and 255 nM, respectively.

With `CCCCNc1ncc(-c2nc(C(=O)O)cs2)c(N[C@H]2CC[C@H](O)CC2)n1` [UNC3139A], the values for the IC50 on Axl and at Tyro3 were 4540 nM and 2550 nM, respectively.

As for `CCCCNc1ncc(-c2cc(NC)ncn2)c(N[C@H]2CC[C@H](O)CC2)n1` [UNC3126A], the results for the IC50 at Axl and at Tyro3 were 364 nM and 109 nM, respectively.

Take `CCCCNc1ncc(-c2ncc(CN3CCN(C)CC3)s2)c(N[C@H]2CC[C@H](O)CC2)n1` [UNC3121A]: the IC50 on Axl worked out at 96 nM; at Tyro3 it was 71 nM.

On to `CCCCNc1ncc(-c2cn(C(c3ccccc3)(c3ccccc3)c3ccccc3)cn2)c(N[C@H]2CC[C@H](O)CC2)n1` [UNC3117A], for which the half-inhibitory concentration (IC50) on Axl and on Tyro3 was 30000 nM in each case.

Turning to `CCCCNc1ncc(-c2ccc(C3=CCC(CN(C)C)CC3)cn2)c(N[C@H]2CC[C@H](O)CC2)n1` (some centres unmarked) [UNC4387A], the half-maximal inhibitory concentration (IC50) on Axl was 320 nM; on Tyro3, 488 nM.

As for `CCCCNc1ncc(-c2cnc(N)cn2)c(N[C@H]2CC[C@H](O)CC2)n1` [UNC3041A], the IC50 on Axl is 968 nM; on Tyro3, 605 nM.

`CCCCNc1ncc(C(=O)NCc2cccc3ccccc23)c(N[C@H]2CC[C@H](O)CC2)n1` [UNC2763A]: the IC50 was found to be 1090 nM at Axl and 502 nM at Tyro3.

On to `CCCCNc1ncc(-c2ccc(C(=O)O)nn2)c(N[C@H]2CC[C@H](O)CC2)n1` [UNC3042A], for which the figures for the IC50 on Axl and at Tyro3 were 558 nM and 192 nM, respectively.

Consider `CCCCNc1ncc(C(=O)NCc2ccc(-c3ccccc3OC)nc2)c(N[C@H]2CC[C@H](O)CC2)n1` [UNC4255A], for which the half-inhibitory concentration (IC50) on Axl is 336 nM; on Tyro3 it was 156 nM.

`CCCCNc1ncc(-c2ccc(CCN3CCCN(C)CC3)cn2)c(N[C@H]2CC[C@H](O)CC2)n1` [UNC4279A]: the IC50 on Axl turned out to be 67 nM; at Tyro3, 42 nM.

Turning to `CCCCNc1ncc(-c2ccc(CCN3CCCC3)cn2)c(N[C@H]2CC[C@H](O)CC2)n1` [UNC4221A], the IC50 on Axl was 104 nM; at Tyro3 it was 43 nM.

For `CCCCNc1ncc(-c2ccc(NC(=O)C3CC3)cn2)c(NC2CCC(O)CC2)n1` (centres unmarked) [UNC2711A], the 50% inhibitory concentration (IC50) was 644 nM on Axl and 265 nM at Tyro3.

`CCCCNc1ncc(-c2ccc(NC(=O)C3CCCCC3)cn2)c(NC2CCC(O)CC2)n1` (centres unmarked) [UNC2712A]: the IC50 on Axl amounted to 364 nM; at Tyro3, 209 nM.

For the compound `CCCCNc1ncc(C(=O)NCc2ccc(-n3ccnc3-c3ccccc3)cc2)c(N[C@H]2CC[C@H](O)CC2)n1` [UNC2957A], the results for the IC50 at Axl and at Tyro3 were 593 nM and 975 nM, respectively.

`CCCCNc1ncc(-c2ccccn2)c(NCCO)n1` [UNC2997A]: the IC50 on Axl is 30000 nM; on Tyro3 it was 20000 nM.

Consider `CCCCNc1ncc(-c2ccc(C3(N4CCOCC4)CC3)cn2)c(NC2CCC(O)CC2)n1` (centres unmarked) [UNC3664A], for which the IC50 at Axl was 93 nM; on Tyro3, 18 nM.

Regarding `CCCCNc1ncc(C(=O)NCc2ccc(-n3cccc3)cc2)c(N[C@H]2CC[C@H](O)CC2)n1` [UNC2880A], the values for the IC50 on Axl and on Tyro3 were 812 nM and 559 nM, respectively.

With `CCCCNc1ncc(C(=O)NCc2ccc(-n3cccn3)cc2)c(N[C@H]2CC[C@H](O)CC2)n1` [UNC2744A], the IC50 on Axl is 277 nM; at Tyro3, 172 nM.

With `CCCCNc1ncc(-c2ccc(C=C3CCNCC3)cn2)c(N[C@H]2CC[C@H](O)CC2)n1` [UNC4336A], the IC50 is 40 nM on Axl and 13 nM at Tyro3.

Regarding `CCCCNc1ncc(-c2nc(C(F)(F)F)cs2)c(N[C@H]2CC[C@H](O)CC2)n1` [UNC3149A], the IC50 on Axl and at Tyro3 was 30000 nM throughout.

Turning to `CCCCNc1ncc(-c2ccc(CN3CCNCC3(C)C)cn2)c(NC2CCC(O)CC2)n1` (centres unmarked) [UNC4110A], the IC50 at Tyro3 stood at 19 nM.

In the case of `CCCCNc1ncc(-c2ccc(C3=CCNCC3)cn2)c(N[C@H]2CC[C@H](O)CC2)n1` [UNC4354A], the IC50 on Axl was determined as 27 nM; at Tyro3 it was 24 nM.

Turning to `CCCCNc1ncc(-c2ccc(CN3C[C@@H]4C[C@H]3CN4)cn2)c(NC2CCC(O)CC2)n1` (some centres unmarked) [UNC4112A], the IC50 at Axl was determined as 32 nM; on Tyro3 it was 19 nM.

For the compound `CCCCNc1ncc(C(=O)NCc2ccc(-c3ccc(C#N)cc3)nc2)c(N[C@H]2CC[C@H](O)CC2)n1` [UNC4239A], the IC50 was determined as 977 nM at Axl and 305 nM on Tyro3.

For `CCCCNc1ncc(C(=O)Nc2ccc(CN3CCN(C)CC3)cc2)c(N[C@H]2CC[C@H](O)CC2)n1` [UNC2764A], the IC50 at Axl is 177 nM.

Regarding `CCCCNc1ncc(-c2nc(CO)cs2)c(N[C@H]2CC[C@H](O)CC2)n1` [UNC3135A], the values for the IC50 on Axl and on Tyro3 were 304 nM and 165 nM, respectively.

With `CCCCNc1ncc(C(=O)NCc2ccc(-n3cnc(CO)c3)cc2)c(N[C@H]2CC[C@H](O)CC2)n1` [UNC3183A], the half-maximal inhibitory concentration (IC50) at Axl was found to be 703 nM; on Tyro3, 372 nM.

Regarding `CCCCNc1ncc(C(=O)NC2CCN(Cc3ccc(N4CCOCC4)cc3)CC2)c(N[C@H]2CC[C@H](O)CC2)n1` [UNC2918A], the values for the IC50 at Axl and at Tyro3 were 667 nM and 145 nM, respectively.

Regarding `CCCCNc1ncc(C(=O)NCc2ccc(-c3ccc(OC)cc3)nc2)c(N[C@H]2CC[C@H](O)CC2)n1` [UNC4238A], the IC50 was found to be 698 nM at Axl and 242 nM on Tyro3.

For the compound `CCCCNc1ncc(-c2cc(Cl)c(CN3CCCC3)cn2)c(N[C@H]2CC[C@H](O)CC2)n1` [UNC4222A], the IC50 at Axl was determined as 39 nM; on Tyro3, 16 nM.

`CCCCNc1ncc(C(=O)NCc2ccc(Cn3ccnc3)cc2)c(N[C@H]2CC[C@H](O)CC2)n1` [UNC3144A]: the IC50 was found to be 487 nM at Axl and 360 nM at Tyro3.

Consider `CCCCNc1ncc(-c2cncc(N3CCCC3)n2)c(N[C@H]2CC[C@H](O)CC2)n1` [UNC3115A], for which the IC50 on Axl worked out at 642 nM; on Tyro3, 415 nM.

Regarding `CCCCNc1ncc(-c2cc(NCC)ncn2)c(N[C@H]2CC[C@H](O)CC2)n1` [UNC3113A], the results for the IC50 at Axl and at Tyro3 were 255 nM and 77 nM, respectively.

Turning to `CCCCNc1ncc(-c2ccc(-c3cccc(C(=O)O)c3)nn2)c(N[C@H]2CC[C@H](O)CC2)n1` [UNC3141A], the IC50 on Axl came to 30000 nM.

Take `CCCCNc1ncc(C(=O)NCc2ccon2)c(N[C@H]2CC[C@H](O)CC2)n1` [UNC4290A]: the IC50 at Tyro3 was determined as 375 nM.
